Tested on: INS1 cells
Assay: RNAseq of INS1 cells grown in chronic high glucose compared to controls and stimulated with FSK (Table 2)
Type: cell-based, rat
Conditions: Low glucose
Method: INS-1 insulinoma cells were cultured in RPMI (corning cellgro) containing 10% fetal bovine serum (Gemini Bio Products), 100 μg/mL penicillin-streptomycin and 1 mM sodium pyruvate (corning cellgro). MIN6 cells were grown in DMEM (corning cellgro) with 10% FBS, 100 μg/mL penicillin-streptomycin and 70 uM beta-mercaptoethanol. For chronic glucose experiments, cells were maintained under low (2.8 mM) or high (20 mM) glucose for 3 days. Exendin-4 (10 nM), Forskolin (10 μM), KCl (40 mM), DMOG (1 mM) and rapamycin (50 nM) were added to cells as indicated. Cellular cAMP levels were measured using an ELISA kit (Cayman Chemical Company) according to manufacturer's instructions. Total RNAs from cells or primary islets were extracted using Trizol and cDNA was generated using the Transcriptor First Strand cDNA Synthesis kit (Roche Applied Science). cDNAs were quantified on a lightcycler 480 instrument (Roche Applied Science). Gene expression data were presented relative to the expression of housekeeping gene L32 (rat samples) and 18S (mouse and human islets). RNA-Seq libraries were prepared using the mRNA isolation protocol and the NEBNext-Ultra kits from New England Biolabs following the manufacturer's protocols. Libraries were quantitated by Qubit (Invitrogen), and run on a MiSeq instrument with paired-end 75 bp reads using v3 chemistry (Illumina) Data were analyzed by tophat2 and cuffdiff against the mouse mm10 genome build. The GEO accession number for RNAseq studies reported in the paper is GSE60158.

## C=C[C@@]1(C)CC(=O)[C@]2(O)[C@@]3(C)[C@@H](O)CCC(C)(C)[C@@H]3[C@H](O)[C@H](OC(C)=O)[C@@]2(C)O1 [FSK, Forskolin]
FSK
  Agt RNAseq value: 5.2
  Ahi1 RNAseq value: 32.6
  Bhlha15 RNAseq value: 63.9
  Btg3 RNAseq value: 145.9
  Bysl RNAseq value: 56.1
  Canx RNAseq value: 241.6
  Ccni RNAseq value: 242.1
  Chd1 RNAseq value: 20.8
  Chrne RNAseq value: 0.2
  Ctf1 RNAseq value: 0.2
  Cxcl2 RNAseq value: 1.0
  Cyth3 RNAseq value: 30.7
  Dkc1 RNAseq value: 87.8
  Epha3 RNAseq value: 0.1
  Epor RNAseq value: 0.2
  Fam49a RNAseq value: 0.2
  Ficd RNAseq value: 89.9
  Fmc1 RNAseq value: 26.0
  Fn1 RNAseq value: 852.9
  Gabre RNAseq value: 0.1
  Gars RNAseq value: 439.6
  Ggt5 RNAseq value: 0.3
  Gnl3 RNAseq value: 31.0
  Gnmt RNAseq value: 0.4
  Gzmm RNAseq value: 0.4
  Hmcn1 RNAseq value: 0.0
  Hmga2 RNAseq value: 0.5
  Hnrnpa1 RNAseq value: 34.2
  Hnrpdl RNAseq value: 160.1
  Hs3st2 RNAseq value: 0.6
  Hspa4 RNAseq value: 138.6
  Hspd1 RNAseq value: 47.6
  Icam2 RNAseq value: 0.2
  Il13ra1 RNAseq value: 0.3
  Il28ra RNAseq value: 10.0
  Kcnb1 RNAseq value: 48.7
  Kcnj13 RNAseq value: 1.4
  Kdm1b RNAseq value: 9.1
  Kif9 RNAseq value: 0.3
  LOC683722 RNAseq value: 12.3
  LOC686295 RNAseq value: 4.9
  LOC689959 RNAseq value: 17.9
  Lrfn5 RNAseq value: 0.1
  Map3k4 RNAseq value: 25.4
  Mef2d RNAseq value: 146.0
  Megf10 RNAseq value: 0.1
  Msn RNAseq value: 1.2
  Myof RNAseq value: 0.0
  Nckap1l RNAseq value: 0.2
  Nkx2-2 RNAseq value: 192.1
  Nolc1 RNAseq value: 183.8
  Notch4 RNAseq value: 0.9
  Ormdl3 RNAseq value: 286.8
  Otop3 RNAseq value: 0.1
  Pabpc6 RNAseq value: 0.1
  Pde3b RNAseq value: 103.8
  Pde4dip RNAseq value: 61.8
  Pdrg1 RNAseq value: 43.4
  Plcb2 RNAseq value: 0.1
  RGD1309079 RNAseq value: 1.1
  RGD1311084 RNAseq value: 0.2
  Rab3gap2 RNAseq value: 53.1
  Rab11fip1 RNAseq value: 11.0
  Rap2a RNAseq value: 13.5
  Rho RNAseq value: 0.2
  Rpl7a RNAseq value: 0.4
  Rpl17 RNAseq value: 117.5
  Rrs1 RNAseq value: 38.4
  Sgce RNAseq value: 0.2
  Smad1 RNAseq value: 48.4
  Smad3 RNAseq value: 5.7
  Snapc1 RNAseq value: 4.6
  Sncaip RNAseq value: 7.4
  Spon2 RNAseq value: 0.7
  Srp54 RNAseq value: 40.0
  Stard8 RNAseq value: 0.3
  Syp RNAseq value: 744.1
  T2 RNAseq value: 0.2
  Taf1a RNAseq value: 9.0
  Tex38 RNAseq value: 0.5
  Tmem114 RNAseq value: 0.2
  Tomm20 RNAseq value: 90.1
  Tpp2 RNAseq value: 12.0
  Twistnb RNAseq value: 8.1
  Usp9x RNAseq value: 56.0
  Vps37b RNAseq value: 52.0
  Zfp830 RNAseq value: 20.4
  Zfp385d RNAseq value: 0.2
FSK/control
  Accsl Fold: 2.0
  Acpt Fold: 2.0
  Acsl4 Fold: 2.0
  Agt Fold: 2.0
  Ahi1 Fold: 2.0
  Bhlha15 Fold: 2.0
  Btg3 Fold: 2.0
  Bysl Fold: 2.0
  Canx Fold: 2.0
  Ccni Fold: 2.0
  Chd1 Fold: 2.0
  Chrne Fold: 2.0
  Ctf1 Fold: 2.0
  Cxcl2 Fold: 2.0
  Cyth3 Fold: 2.0
  Dkc1 Fold: 2.0
  Epha3 Fold: 2.0
  Epor Fold: 2.0
  Fam49a Fold: 2.0
  Ficd Fold: 2.0
  Fmc1 Fold: 2.0
  Fn1 Fold: 2.0
  Gabre Fold: 2.0
  Gars Fold: 2.0
  Ggt5 Fold: 2.0
  Gnl3 Fold: 2.0
  Gnmt Fold: 2.0
  Gzmm Fold: 2.0
  Hmcn1 Fold: 2.0
  Hmga2 Fold: 2.0
  Hnrnpa1 Fold: 2.0
  Hnrpdl Fold: 2.0
  Hs3st2 Fold: 2.0
  Hspa4 Fold: 2.0
  Hspd1 Fold: 2.0
  Icam2 Fold: 2.0
  Il13ra1 Fold: 2.0
  Il28ra Fold: 2.0
  Kcnb1 Fold: 2.0
  Kcnj13 Fold: 2.0
  Kdm1b Fold: 2.0
  Kif9 Fold: 2.0
  LOC683722 Fold: 2.0
  LOC686295 Fold: 2.0
  LOC689959 Fold: 2.0
  Lrfn5 Fold: 2.0
  Map3k4 Fold: 2.0
  Mef2d Fold: 2.0
  Megf10 Fold: 2.0
  Msn Fold: 2.0
  Myof Fold: 2.0
  Nckap1l Fold: 2.0
  Nkx2-2 Fold: 2.0
  Nolc1 Fold: 2.0
  Notch4 Fold: 2.0
  Ormdl3 Fold: 2.0
  Otop3 Fold: 2.0
  Pabpc6 Fold: 2.0
  Pde3b Fold: 2.0
  Pde4dip Fold: 2.0
  Pdrg1 Fold: 2.0
  Plcb2 Fold: 2.0
  RGD1309079 Fold: 2.0
  RGD1311084 Fold: 2.0
  Rab3gap2 Fold: 2.0
  Rab11fip1 Fold: 2.0
  Rap2a Fold: 2.0
  Rho Fold: 2.0
  Rpl7a Fold: 2.0
  Rpl17 Fold: 2.0
  Rrs1 Fold: 2.0
  Sgce Fold: 2.0
  Smad1 Fold: 2.0
  Smad3 Fold: 2.0
  Snapc1 Fold: 2.0
  Sncaip Fold: 2.0
  Spon2 Fold: 2.0
  Srp54 Fold: 2.0
  Stard8 Fold: 2.0
  Syp Fold: 2.0
  T2 Fold: 2.0
  Taf1a Fold: 2.0
  Tex38 Fold: 2.0
  Tmem114 Fold: 2.0
  Tomm20 Fold: 2.0
  Tpp2 Fold: 2.0
  Twistnb Fold: 2.0
  Usp9x Fold: 2.0
  Vps37b Fold: 2.0
  Zfp830 Fold: 2.0
  Zfp385d Fold: 2.0

From patent US10258639B2, “Methods for treating insulin resistance and for sensitizing patients to GLP1 agonist therapy” (Research Development Foundation, priority 2014, dated 2019)
